Experimental data as given in patent publication US7279497B2, “Benzopyran derivatives substituted with secondary amines including imidazole, their preparation and pharmaceutical compositions containing them” (Korea Research Institute of Chemical Technology, priority 2002, dated 2007).
Where “and” joins values, the source holds several entries; their conditions need not be identical. Equal entries are not always repeated.

What was measured:
isolated rat hearts = test: Cardioprotective activity in isolated ischemic rat heart (Langendorff); settings: 10 μM
Protocol: In order to determine whether the compounds of the chemical formula 1 are protective for ischemic hearts in vitro, experiments determining the anti-ischemic effects of the compounds on isolated rat hearts were conducted as follows.
For all in vitro studies, isolated rat hearts were used according to the published methods after some modification [HJ Ring, Arzneim.-Forsch./Drug Res. 39 (II), 1535 (1989): T. Krzeminski, et al., J. Pharmacological Methods, 25, 95, (1991)]
Male Sprague-Dawley rats weighing 300-450 g were anesthetized with sodium pentobarbital (100 mg/kg, i.p.). The tail vein was injected with heparin (1,000 U/kg) and then the trachea was intubated. While rats were mechanically ventilated with a rodent ventilator (Model 7025, Ugobasile, Italy), their hearts were perfused in situ with oxygenated modified Krebs-Henseleit bicarbonate buffer (described herein) by retrograde aortic cannulation. The hearts were then excised and moved to a Langendorff apparatus (H.S.E., Germany), where they were perfused with oxygenated modified Krebs-Henseleit bicarbonate buffer containing (in mM) NaCl 116, NaHCO3 24.9, KCl 4.7, MgSO4 1.1, KH2PO4 1.17, CaCl2 2.52, glucose 8.32 and pyruvate 2.0 at a constant perfusion pressure (85 mm Hg). A latex balloon filled with solvent (ethanol:water=1:1 (v/v)) and attached to a metal cannula was placed in the left ventricle through pulmonary vein and connected to a Isotec pressure transducer (H.S.E., Germany) for measurement of left ventricular pressure (LVP). The hearts were allowed to equilibrate for 15 min, at which time left ventricular end-diastolic pressure (EDP) was adjusted to 5 mm Hg and this balloon volume was maintained throughout the experiment. Then, baseline contractile function, heart rate (HR), and coronary flow (CF) (extracorporeal electromagnetic flow probe, Narco Bio-System, U.S.A.) were measured. Cardiac contractile function was calculated by subtracting LVEDP from LV peak systolic pressure (LVSP), yielding developed pressure (LVDP). Double product (DP), another important parameter for assessing cardiac performance, was calculated by multiplying HR by LVDP. Throughout the experiment, all these parameters were measured, and calculated before and 10 min after pretreatment with each compound and 30 min after the onset of reperfusion with buffer. Data on reperfusion DP were further expressed as the percentage to pretreatment DP.
After stabilization for 15 min, the hearts were pretreated for 10 min with respective drugs (10 μM, 0.04% DMSO) or vehicle (0.04% DMSO) before onset of global ischemia; test agents were administered directly into the oxygenator of the Langendorff apparatus immediately above the aortic root in a retrograde fashion as solutions in the perfusate. We then rendered the hearts globally ischemic by completely shutting off the perfusate for 30 min. Severity of ischemia was determined as the time to contracture (TTC, min) during global ischemia in which the first 5 mmHg increase in EDP was observed. Then, the hearts were reperfused and, 30 min later, contractile function (LVDP, DP) and cumulative reperfusion lactate dehydrogenase (LDH) release were measured. LDH was measured as a sensitive index for loss of cell viability with a kit supplied by Boerhinger Mannheim based on the technique of Wroblewski and LaDue [F. Wroblewski and J S. La Due, Proc Soc Exp Biol Med 90, 210, (1955)].

[1] = system: HUVECs (Human umbilical vein endothelial cells); test: Inhibitory effects on HUVEC tube formation; type: cell-based;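 further: from minus no inhibition up to plus-plus-plus complete inhibition versus vehicle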
Method in brief: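 HUVECs within passage 5 were plated on bFGF-reduced polymerized Matrigel and incubated with or without compound. Tube formation assessed as changes in cell morphology by phase-contrast microscopy and photography.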

isolated rat aorta = test: Vasorelaxation effects on isolated blood vessels (methoxamine induced vasoconstriction)
Protocol: The following experiment was conducted to examine whether the compounds of the formula 1 have vasorelaxation effects.
Male Sprague-Dawly rats (350-450 g, obtained from the Experimental Animal Team of the Korea Research Institute of Chemical Technology) were knocked unconscious by hitting the occipital region, sacrificed by cervical dislocation, and underwent thoracotomy. After being quickly removed, the thoracic aorta was deprived of the adipose tissue and cut into aortic rings of 3 mm width. The aorta was lightly rubbed with a modified Krebs Henseleit buffer (Physiological Salt Solution, PSS) soaked cotton club to remove the inner epithelial layer therefrom. While being suspended in an organ bath containing a physiological buffer, the vascular tissue was allowed to equilibrate under a resting tension of 2 g and then, stand for 1 hour at 37° C. for stabilization with a supply of a carbogen consisting of 95% O2-5% CO2.
Thereafter, the vascular tissue was constricted with 10^−5 M phenylephrine and washed several times with PSS and this procedure was repeated again to ensure the stable reactivity of vascular smooth muscle to repetitive constriction/dilatation.
In addition, 3×10^−6 M methoxamine was used to induce an intensive constriction in the vascular smooth muscle. When the vasoconstriction induced by the methoxamine reached and maintained a maximum, test compounds and controls were cumulatively added to the organ baths in concentrations of 1, 3, 10 and 30 μM so as to induce vasodilatation. Cromakalim, BMS-180448, and BMS-191095 were used as the controls.
Following the addition of test compounds, the change in the maximal constriction induced by methoxamine was calculated to plot a concentration-relaxation response curve. Through a linear regression analysis, IC50, the drug concentration at which the vascular tissue is 50% dilated, was obtained for each compound.

COC(OC)[C@@]1(C)Oc2ccc([N+](=O)[O-])cc2[C@@H](N(Cc2ncc[nH]2)c2ccc(Cl)cc2)[C@@H]1O [Example 1, (2S,3S,4R)-3,4-dihydro-2-dimethoxymethyl-3-hydroxy-2-methyl-6-nitro-4-[N-(4-chlorophenyl)-N-(1H-imidazol-2-ylmethyl)amino]-2H-1-benzopyran]
LDVP × HR (%) (isolated rat hearts; 30 min reperfusion, % of pretreatment DP): 55.7%
TTC (time to contracture) (isolated rat hearts; global ischemia): 28 min and 28.0 min
EDP (isolated rat hearts; reperfusion): 24.0 MmHg
LDH (reperfusion release) (isolated rat hearts; reperfusion): 10.7 U/g
Tube formation ([1]; 10 μM): +
Tube formation ([1]; 50 μM): +
Tube formation ([1]; 100 μM): ++
IC50 (isolated rat aorta; rat aorta constricted with methoxamine (3 μM)): 9.83 µM
vasorelaxant potency lower than BMS-180448 (isolated rat aorta; ratio of IC50): 7 times
